Values after ≈ are worked out from the molar mass of the structure shown.
Key:
Staphylococcus aureus [1] = test: Minimum inhibition concentration against Staphylococcus aureus strains in presence of 2% calf serum; type: functional
Haemophilus influenzae = test: Minimum inhibition concentration against Haemophilus influenzae strains; type: functional
[2] = Maximum serum concentration in mouse was determined; type: ADME, organism-based
Staphylococcus aureus [3] = test: Minimum inhibition concentration against Staphylococcus aureus strains in presence of 1% calf serum; type: functional
[4] = Area under curve concentration in mouse was determined; type: ADME; details: in vivo
[5] = Half life for compound in mouse was determined; type: ADME; details: in vivo
[6] = Protective dose against Staphylococcus aureus in mice after 8 days of oral b.i.d. administration at 1 and 5 hr per interval (n=10); type: functional; details: read-out: PD50
Staphylococcus aureus [7] = test: Minimum inhibition concentration against Staphylococcus aureus strains in presence of 0.5% calf serum; type: functional
Staphylococcus aureus [8] = test: Minimum inhibition concentration against Staphylococcus aureus strains in presence of >64% calf serum; type: functional
Staphylococcus aureus [9] = test: Minimum inhibition concentration against Staphylococcus aureus strains in presence of 8% calf serum; type: functional
Staphylococcus aureus [10] = test: Minimum inhibition concentration against Staphylococcus aureus strains in presence of 16% calf serum; type: functional
Staphylococcus aureus [11] = test: Minimum inhibition concentration against Staphylococcus aureus strains in presence of 32% calf serum; type: functional
Staphylococcus aureus [12] = test: Minimum inhibition concentration against Staphylococcus aureus strains in presence of 0.03% calf serum; type: functional
Staphylococcus aureus [13] = test: Minimum inhibition concentration against Staphylococcus aureus strains in presence of 4% calf serum; type: functional
Mus musculus = test: Protective dose against Staphylococcus aureus in mice after 8 days of oral b.i.d. administration at 1 and 5 h per interval with water as vehicle (n=10); range is 5-6 mg/kg/day; type: functional; details: read-out: PD50

Q: With CC(=O)NCn1cc(-c2ccc(-c3ccc(O)cc3)cc2)c(=O)o1 as the compound, how does the MIC (Staphylococcus aureus [1]) read?
A: 1 µg/mL

Q: What about the MIC (Haemophilus influenzae) of the same compound?
A: 8 µg/mL (≈ 24.7 µM)

Q: Which results are given for CC(=O)NCn1cc(-c2ccc(C3=CCS(=O)(=O)CC3)cc2)c(=O)o1?
A: MIC (Haemophilus influenzae): 4 µg/mL (≈ 11 µM); Cmax [2]: 17700 ng/mL; MIC (Staphylococcus aureus [3]): 0.5 µg/mL; AUC [4]: 19.4 µg/h/mL; half-life [5]: 12.2 min; ED50 [6]: 4 mg/kg/day

Q: Which MIC (Haemophilus influenzae) does the source give for CC(=O)NCn1cc(-c2ccc(C3=CCN(C(C)=O)CC3)cc2)c(=O)o1 here?
A: 2 µg/mL (≈ 5.63 µM)

Q: What about the MIC (Staphylococcus aureus [7]) of the same compound?
A: 0.25 µg/mL

Q: And the Cmax [2]?
A: 2600 ng/mL

Q: What about the AUC [4] of the same compound?
A: 1.5 µg/h/mL

Q: What about the half-life [5] of the same compound?
A: 6.4 min

Q: What about the ED50 [6] of the same compound?
A: 9 mg/kg/day

Q: For CC(=O)NCn1cc(-c2ccc(-c3ccc(C#N)cc3)cc2)c(=O)o1, which MIC (Staphylococcus aureus [1]) is on record?
A: 0.06 µg/mL

Q: And the MIC (Haemophilus influenzae)?
A: 4 µg/mL (≈ 12 µM)

Q: Which MIC (Haemophilus influenzae) does the source give for CC(=O)NCn1cc(-c2ccc(-c3ccc(F)c(C(=O)O)c3)cc2)c(=O)o1 here?
A: 64 µg/mL (≈ 173 µM)

Q: And the MIC (Staphylococcus aureus [8])?
A: 32 µg/mL

Q: For CC(=O)NCn1cc(-c2ccc(-c3ccc(C(F)(F)F)cc3)cc2)c(=O)o1, which MIC (Haemophilus influenzae) is on record?
A: > 32 µg/mL

Q: What about the MIC (Staphylococcus aureus [9]) of the same compound?
A: 0.25 µg/mL

Q: For CC(=O)NCn1cc(-c2ccc(-c3ccncc3)cc2)c(=O)o1, which MIC (Haemophilus influenzae) is on record?
A: 2 µg/mL (≈ 6.47 µM)

Q: What about the MIC (Staphylococcus aureus [7]) of the same compound?
A: 0.06 µg/mL

Q: What about the Cmax [2] of the same compound?
A: 17700 ng/mL

Q: What about the AUC [4] of the same compound?
A: 56 µg/h/mL

Q: What about the half-life [5] of the same compound?
A: 203 min

Q: And the ED50 [6]?
A: 8.9 mg/kg/day

Q: What does the source list for CC(=O)NCn1cc(-c2ccc(-c3ccccn3)cc2)c(=O)o1?
A: MIC (Staphylococcus aureus [1]): 1 µg/mL; MIC (Haemophilus influenzae): 8 µg/mL (≈ 25.9 µM)

Q: Which results are given for COC(=O)c1ccc(-c2ccc(-c3cn(CNC(C)=O)oc3=O)cc2)cc1?
A: MIC (Haemophilus influenzae): > 32 µg/mL; MIC (Staphylococcus aureus [7]): 0.06 µg/mL

Q: What does the source list for CC(=O)NCn1cc(-c2ccc(C3=CCN(C(=N)N)CC3)cc2)c(=O)o1?
A: MIC (Haemophilus influenzae): 32 µg/mL (≈ 90 µM); MIC (Staphylococcus aureus [10]): 8 µg/mL

Q: With CC(=O)NCn1cc(-c2ccc(-c3ccc[nH]3)cc2)c(=O)o1 as the compound, how does the MIC (Haemophilus influenzae) read?
A: > 64 µg/mL

Q: And the MIC (Staphylococcus aureus [10])?
A: 8 µg/mL

Q: With CC(=O)NCn1cc(-c2ccc(-c3ccc(C(=O)O)c(F)c3)cc2)c(=O)o1 as the compound, how does the MIC (Haemophilus influenzae) read?
A: 32 µg/mL (≈ 86.4 µM)

Q: What about the MIC (Staphylococcus aureus [11]; Staphylococcus aureus) of the same compound?
A: 4 µg/mL

Q: For CC(=O)NCn1cc(-c2ccc(-c3ccsc3)cc2)c(=O)o1, which MIC (Haemophilus influenzae) is on record?
A: 4 µg/mL (≈ 12.7 µM)

Q: And the MIC (Staphylococcus aureus [12])?
A: 0.03 µg/mL

Q: Which results are given for CC(=O)NCn1cc(-c2ccc(C3CCN(C(C)=O)CC3)cc2)c(=O)o1?
A: MIC (Haemophilus influenzae): 8 µg/mL (≈ 22.4 µM); MIC (Staphylococcus aureus [3]): 1 µg/mL

Q: For CC(=O)NCn1cc(-c2ccc(-c3sccc3CO)cc2)c(=O)o1, which MIC (Haemophilus influenzae) is on record?
A: 32 µg/mL (≈ 92.9 µM)

Q: What about the MIC (Staphylococcus aureus [13]) of the same compound?
A: 0.25 µg/mL

Q: For CC(=O)NCn1cc(-c2ccc(-c3ncn(C)n3)cc2)c(=O)o1, which MIC (Haemophilus influenzae) is on record?
A: > 64 µg/mL

Q: And the MIC (Staphylococcus aureus [9])?
A: 4 µg/mL

Q: What does the source list for CC(=O)NCn1cc(-c2ccc(C3CCNCC3)cc2)c(=O)o1?
A: MIC (Haemophilus influenzae): 32 µg/mL (≈ 101 µM); MIC (Staphylococcus aureus [10]): 32 µg/mL

Q: With COc1ccccc1-c1ccc(-c2cn(CNC(C)=O)oc2=O)cc1 as the compound, how does the MIC (Haemophilus influenzae) read?
A: 32 µg/mL (≈ 94.6 µM)

Q: And the MIC (Staphylococcus aureus [9])?
A: 0.5 µg/mL

Q: With CC(=O)NCn1cc(-c2ccc(C3CCOCC3)cc2)c(=O)o1 as the compound, how does the MIC (Staphylococcus aureus [1]) read?
A: 1 µg/mL

Q: What about the MIC (Haemophilus influenzae) of the same compound?
A: 32 µg/mL (≈ 101 µM)

Q: With CC(=O)NCn1cc(-c2ccc(C3=CCN(C(=O)OC(C)(C)C)CC3)cc2)c(=O)o1 as the compound, how does the MIC (Haemophilus influenzae) read?
A: > 64 µg/mL

Q: What about the MIC (Staphylococcus aureus [11]; Staphylococcus aureus) of the same compound?
A: 8 µg/mL

Q: With CC(=O)NCn1cc(-c2ccc(-c3cccc4ccccc34)cc2)c(=O)o1 as the compound, how does the MIC (Haemophilus influenzae) read?
A: > 32 µg/mL

Q: What about the MIC (Staphylococcus aureus [11]) of the same compound?
A: 1 µg/mL

Q: And the MIC (Staphylococcus aureus [11]; Staphylococcus aureus)?
A: 1 µg/mL

Q: Which MIC (Staphylococcus aureus [1]) does the source give for CC(=O)NCn1cc(-c2ccc(-c3ccc(C)nc3)cc2)c(=O)o1 here?
A: 0.25 µg/mL

Q: And the MIC (Haemophilus influenzae)?
A: 8 µg/mL (≈ 24.7 µM)

Q: What does the source list for CC(=O)NCn1cc(-c2ccc(-c3ccc(F)cc3)cc2)c(=O)o1?
A: MIC (Haemophilus influenzae): 2 µg/mL (≈ 6.13 µM); MIC (Staphylococcus aureus [13]): 0.03 µg/mL; ED50 [6]: < 5 mg/kg/day

Q: With COc1cccc(-c2ccc(-c3cn(CNC(C)=O)oc3=O)cc2)c1 as the compound, how does the MIC (Haemophilus influenzae) read?
A: > 64 µg/mL

Q: And the MIC (Staphylococcus aureus [3])?
A: 0.06 µg/mL

Q: Which results are given for COc1ccc(-c2ccc(-c3cn(CNC(C)=O)oc3=O)cc2)c(OC)c1?
A: MIC (Haemophilus influenzae): > 32 µg/mL; MIC (Staphylococcus aureus [9]): 2 µg/mL

Q: With CC(=O)NCn1cc(-c2ccc(C3CCN(C(=O)CO)CC3)cc2)c(=O)o1 as the compound, how does the MIC (Staphylococcus aureus [1]) read?
A: 1 µg/mL

Q: And the MIC (Haemophilus influenzae)?
A: 16 µg/mL (≈ 42.8 µM)

Q: What about the ED50 [6] of the same compound?
A: > 3.5 mg/kg/day

Q: Which results are given for CC(=O)NC[C@H]1CN(c2ccc(N3CCOCC3)c(F)c2)C(=O)O1 [LINEZOLID]?
A: MIC (Staphylococcus aureus [1]): 1 µg/mL; MIC (Haemophilus influenzae): 32 µg/mL (≈ 94.9 µM); ED50 (Mus musculus): 6 mg/kg/day

Q: Which MIC (Haemophilus influenzae) does the source give for CC(=O)NCn1cc(-c2ccc(-c3c(C)noc3C)cc2)c(=O)o1 here?
A: > 64 µg/mL

Q: What about the MIC (Staphylococcus aureus [9]) of the same compound?
A: 2 µg/mL

Q: What does the source list for CC(=O)NCn1cc(-c2ccc(-c3ccc(C(=O)O)cc3)cc2)c(=O)o1?
A: MIC (Haemophilus influenzae): 2 µg/mL (≈ 5.68 µM); Cmax [2]: 1700 ng/mL; AUC [4]: 0.56 µg/h/mL; MIC (Staphylococcus aureus [9]): 1 µg/mL; half-life [5]: 8.5 min; ED50 [6]: > 50 mg/kg/day
